Data taken from patent US20220132847A1, “CINNOLINIUM COMPOUNDS FOR USE IN A METHOD OF CONTROLLING UNWANTED PLANT GROWTH” (SYNGENTA CROP PROTECTION AG, priority 2019, published 2022).
Counter-ions that a name gives are not always drawn.

What was measured:
Assay in all cases: Post-emergence efficacy, glasshouse
Type in all cases: in vivo
[1] = system: Amaranthus palmeri (AMAPA); settings: Amaranthus palmeri, post-emergence, 312 h, evaluated after 13 days, 100=total damage to plant, 0=no damage to plant, read-out: Control of weed species after post-emergence application, AMAPA; for pest or weed control at 1000 g/ha: Application Rate 1000 g/Ha
Experimental: (§1) Seeds of a variety of test species were sown in standard soil in pots. After cultivation for 14 days (post-emergence) under controlled conditions in a glasshouse (at 24/16° C., day/night; 14 hours light; 65% humidity), the plants were sprayed with an aqueous spray solution derived from the dissolution of the technical active ingredient formula (I) in a small amount of acetone and a special solvent and emulsifier mixture referred to as IF50 (11.12% Emulsogen EL360™+44.44% N-methylpyrrolidone+44.44% Dowanol DPM glycol ether), to create a 50 g/l solution which was then diluted to required concentration using 0.25% or 1% Empicol ESC70 (Sodium lauryl ether sulphate)+1% ammonium sulphate in water as diluent.
(§2) The test plants were then grown in a glasshouse under controlled conditions (at 24/16° C., day/night; 14 hours light; 65% humidity) and watered twice daily. After 13 days the test was evaluated (100=total damage to plant; 0=no damage to plant).
(§3) Ipomoea hederacea (IPOHE), Euphorbia heterophylla (EPHHL), Chenopodium album (CHEAL), Amaranthus palmeri (AMAPA), Lolium perenne (LOLPE), Digitaria sanguinalis (DIGSA), Eleusine indica (ELEIN), Echinochloa crus-galli (ECHCG), Setaria faberi (SETFA)

[2] = system: Chenopodium album (CHEAL); settings: Chenopodium album, post-emergence, 312 h, evaluated after 13 days, 100=total damage to plant, 0=no damage to plant, read-out: Control of weed species after post-emergence application, CHEAL; for pest or weed control at 1000 g/ha: Application Rate 1000 g/Ha
Experimental: as §1, §2, §3

[3] = system: Digitaria sanguinalis (DIGSA); settings: Digitaria sanguinalis, post-emergence, 312 h, evaluated after 13 days, 100=total damage to plant, 0=no damage to plant, read-out: Control of weed species after post-emergence application, DIGSA; for pest or weed control at 1000 g/ha: Application Rate 1000 g/Ha
Experimental: as §1, §2, §3

[4] = system: Echinochloa crus-galli (ECHCG); settings: Echinochloa crus-galli, post-emergence, 312 h, evaluated after 13 days, 100=total damage to plant, 0=no damage to plant, read-out: Control of weed species after post-emergence application, ECHCG; for pest or weed control at 1000 g/ha: Application Rate 1000 g/Ha
Experimental: as §1, §2, §3

Eleusine indica (ELEIN) = settings: Eleusine indica, post-emergence, 312 h, evaluated after 13 days, 100=total damage to plant, 0=no damage to plant, read-out: Control of weed species after post-emergence application, ELEIN; for pest or weed control at 1000 g/ha: Application Rate 1000 g/Ha
Experimental: as §1, §2, §3

[5] = system: Euphorbia heterophylla (EPHHL); settings: Euphorbia heterophylla, post-emergence, 312 h, evaluated after 13 days, 100=total damage to plant, 0=no damage to plant, read-out: Control of weed species after post-emergence application, EPHHL; for pest or weed control at 1000 g/ha: Application Rate 1000 g/Ha
Experimental: as §1, §2, §3

[6] = system: Ipomoea hederacea (IPOHE); settings: Ipomoea hederacea, post-emergence, 312 h, evaluated after 13 days, 100=total damage to plant, 0=no damage to plant, read-out: Control of weed species after post-emergence application, IPOHE; for pest or weed control at 1000 g/ha: Application Rate 1000 g/Ha
Experimental: as §1, §2, §3

Lolium perenne (LOLPE) = settings: Lolium perenne, post-emergence, 312 h, evaluated after 13 days, 100=total damage to plant, 0=no damage to plant, read-out: Control of weed species after post-emergence application, LOLPE; for pest or weed control at 1000 g/ha: Application Rate 1000 g/Ha
Experimental: as §1, §2, §3

Setaria faberi (SETFA) = settings: Setaria faberi, post-emergence, 312 h, evaluated after 13 days, 100=total damage to plant, 0=no damage to plant, read-out: Control of weed species after post-emergence application, SETFA; for pest or weed control at 1000 g/ha: Application Rate 1000 g/Ha
Experimental: as §1, §2, §3

C[n+]1cc(C(=O)O)c2ccccc2n1 [Compound A3, 2-methylcinnolin-2-ium-4-carboxylic acid methyl sulfate]
pest or weed control at 1000 g/ha [1]: 20% | pest or weed control at 1000 g/ha [2]: 20% | pest or weed control at 1000 g/ha [3]: 50% | pest or weed control at 1000 g/ha [4]: 30% | pest or weed control at 1000 g/ha (Eleusine indica (ELEIN)): 60% | pest or weed control at 1000 g/ha [5]: 30% | pest or weed control at 1000 g/ha [6]: 20% | pest or weed control at 1000 g/ha (Lolium perenne (LOLPE)): 20% | pest or weed control at 1000 g/ha (Setaria faberi (SETFA)): 10%

COCC[n+]1cc(C(=O)[N-]S(C)(=O)=O)c2ccccc2n1 [Compound A24]
pest or weed control at 1000 g/ha [1]: 70% | pest or weed control at 1000 g/ha [2]: 70% | pest or weed control at 1000 g/ha [3]: 40% | pest or weed control at 1000 g/ha [4]: 50% | pest or weed control at 1000 g/ha (Eleusine indica (ELEIN)): 50% | pest or weed control at 1000 g/ha [5]: 40% | pest or weed control at 1000 g/ha [6]: 60% | pest or weed control at 1000 g/ha (Lolium perenne (LOLPE)): 20% | pest or weed control at 1000 g/ha (Setaria faberi (SETFA)): 50%

C[n+]1cc(C(=O)[N-]S(=O)(=O)c2ccccc2)c2ccccc2n1 [Compound A35]
pest or weed control at 1000 g/ha [1]: 20% | pest or weed control at 1000 g/ha [2]: 0% | pest or weed control at 1000 g/ha [3]: 10% | pest or weed control at 1000 g/ha [4]: 0% | pest or weed control at 1000 g/ha (Eleusine indica (ELEIN)): 0% | pest or weed control at 1000 g/ha [5]: 40% | pest or weed control at 1000 g/ha [6]: 20% | pest or weed control at 1000 g/ha (Lolium perenne (LOLPE)): 0% | pest or weed control at 1000 g/ha (Setaria faberi (SETFA)): 10%

CCP(=O)([O-])c1c[n+](C)nc2ccccc12 [Compound A48, ethyl-(2-methylcinnolin-2-ium-4-yl)phosphinate]
pest or weed control at 1000 g/ha [1]: 100% | pest or weed control at 1000 g/ha [2]: 100% | pest or weed control at 1000 g/ha [3]: 70% | pest or weed control at 1000 g/ha [4]: 80% | pest or weed control at 1000 g/ha (Eleusine indica (ELEIN)): 100% | pest or weed control at 1000 g/ha [5]: 100% | pest or weed control at 1000 g/ha [6]: 70% | pest or weed control at 1000 g/ha (Lolium perenne (LOLPE)): 40% | pest or weed control at 1000 g/ha (Setaria faberi (SETFA)): 100%

CS(=O)(=O)[N-]C(=O)c1c[n+](CC(F)F)nc2ccccc12 [Compound A14, [2-(2,2-difluoroethyl)cinnolin-2-ium-4-carbonyl]-methylsulfonyl-azanide]
pest or weed control at 1000 g/ha [1]: 20% | pest or weed control at 1000 g/ha [2]: 20% | pest or weed control at 1000 g/ha [3]: 40% | pest or weed control at 1000 g/ha [4]: 20% | pest or weed control at 1000 g/ha (Eleusine indica (ELEIN)): 30% | pest or weed control at 1000 g/ha [5]: 40% | pest or weed control at 1000 g/ha [6]: 40% | pest or weed control at 1000 g/ha (Lolium perenne (LOLPE)): 0% | pest or weed control at 1000 g/ha (Setaria faberi (SETFA)): 30%

COC(=O)CC[n+]1cc(C(=O)[N-]S(C)(=O)=O)c2ccccc2n1 [Compound A18]
pest or weed control at 1000 g/ha [1]: 10% | pest or weed control at 1000 g/ha [2]: 10% | pest or weed control at 1000 g/ha [3]: 30% | pest or weed control at 1000 g/ha [4]: 20% | pest or weed control at 1000 g/ha (Eleusine indica (ELEIN)): 20% | pest or weed control at 1000 g/ha [5]: 10% | pest or weed control at 1000 g/ha [6]: 20% | pest or weed control at 1000 g/ha (Lolium perenne (LOLPE)): 0% | pest or weed control at 1000 g/ha (Setaria faberi (SETFA)): 10%

COC(=O)C[n+]1cc(C(=O)[N-]S(C)(=O)=O)c2ccccc2n1 [Compound A15, [2-(2-methoxy-2-oxo-ethyl)cinnolin-2-ium-4-carbonyl]-methylsulfonyl-azanide]
pest or weed control at 1000 g/ha [1]: 50% | pest or weed control at 1000 g/ha [2]: 30% | pest or weed control at 1000 g/ha [3]: 0% | pest or weed control at 1000 g/ha [4]: 20% | pest or weed control at 1000 g/ha (Eleusine indica (ELEIN)): 0% | pest or weed control at 1000 g/ha [5]: 30% | pest or weed control at 1000 g/ha [6]: 10% | pest or weed control at 1000 g/ha (Lolium perenne (LOLPE)): 10% | pest or weed control at 1000 g/ha (Setaria faberi (SETFA)): 10%

C[n+]1nc2ccccc2c(C(=O)[O-])c1-c1ccccc1 [Compound A60]
pest or weed control at 1000 g/ha [1]: 100% | pest or weed control at 1000 g/ha [2]: 100% | pest or weed control at 1000 g/ha [3]: 90% | pest or weed control at 1000 g/ha [4]: 50% | pest or weed control at 1000 g/ha (Eleusine indica (ELEIN)): 100% | pest or weed control at 1000 g/ha [5]: 100% | pest or weed control at 1000 g/ha [6]: 100% | pest or weed control at 1000 g/ha (Lolium perenne (LOLPE)): 40% | pest or weed control at 1000 g/ha (Setaria faberi (SETFA)): 70%

C[n+]1cc(C(=O)[N-]S(=O)(=O)C2CC2)c2ccccc2n1 [Compound A12]
pest or weed control at 1000 g/ha [1]: 60% | pest or weed control at 1000 g/ha [2]: 60% | pest or weed control at 1000 g/ha [3]: 20% | pest or weed control at 1000 g/ha [4]: 30% | pest or weed control at 1000 g/ha (Eleusine indica (ELEIN)): 30% | pest or weed control at 1000 g/ha [5]: 70% | pest or weed control at 1000 g/ha [6]: 70% | pest or weed control at 1000 g/ha (Lolium perenne (LOLPE)): 40% | pest or weed control at 1000 g/ha (Setaria faberi (SETFA)): 60%

O=C(O)CC[n+]1cc(C(=O)[N-]S(=O)(=O)C2CC2)c2ccccc2n1 [Compound A20, [2-(2-carboxyethyl)cinnolin-2-ium-4-carbonyl]-cyclopropylsulfonyl-azanide]
pest or weed control at 1000 g/ha [1]: 50% | pest or weed control at 1000 g/ha [2]: 30% | pest or weed control at 1000 g/ha [3]: 0% | pest or weed control at 1000 g/ha [4]: 10% | pest or weed control at 1000 g/ha (Eleusine indica (ELEIN)): 0% | pest or weed control at 1000 g/ha [5]: 20% | pest or weed control at 1000 g/ha [6]: 10% | pest or weed control at 1000 g/ha (Lolium perenne (LOLPE)): 0% | pest or weed control at 1000 g/ha (Setaria faberi (SETFA)): 0%

CC(C)OP(=O)([O-])c1c[n+](C(C)(C)C)nc2ccccc12 [Compound A74]
pest or weed control at 500 g/ha ([1]; Application Rate 500 g/Ha): 100% | pest or weed control at 500 g/ha ([2]; Application Rate 500 g/Ha): 60% | pest or weed control at 500 g/ha ([3]; Application Rate 500 g/Ha): 20% | pest or weed control at 500 g/ha ([4]; Application Rate 500 g/Ha): 10% | pest or weed control at 500 g/ha (Eleusine indica (ELEIN); Application Rate 500 g/Ha): 60% | pest or weed control at 500 g/ha ([5]; Application Rate 500 g/Ha): 50% | pest or weed control at 500 g/ha ([6]; Application Rate 500 g/Ha): 50% | pest or weed control at 500 g/ha (Lolium perenne (LOLPE); Application Rate 500 g/Ha): 30% | pest or weed control at 500 g/ha (Setaria faberi (SETFA); Application Rate 500 g/Ha): 20%

CS(=O)(=O)[N-]C(=O)c1c[n+](CC(=O)NS(C)(=O)=O)nc2ccccc12 [Compound A13]
pest or weed control at 1000 g/ha [1]: 0% | pest or weed control at 1000 g/ha [2]: 0% | pest or weed control at 1000 g/ha [3]: 10% | pest or weed control at 1000 g/ha [4]: 10% | pest or weed control at 1000 g/ha (Eleusine indica (ELEIN)): 10% | pest or weed control at 1000 g/ha [5]: 10% | pest or weed control at 1000 g/ha [6]: 10% | pest or weed control at 1000 g/ha (Lolium perenne (LOLPE)): 10% | pest or weed control at 1000 g/ha (Setaria faberi (SETFA)): 10%

COP(=O)(OC)c1c[n+](CCOS(=O)(=O)[O-])nc2ccccc12 [Compound A70]
pest or weed control at 1000 g/ha [1]: 50% | pest or weed control at 1000 g/ha [2]: 60% | pest or weed control at 1000 g/ha [3]: 70% | pest or weed control at 1000 g/ha [4]: 70% | pest or weed control at 1000 g/ha (Eleusine indica (ELEIN)): 80% | pest or weed control at 1000 g/ha [5]: 60% | pest or weed control at 1000 g/ha [6]: 30% | pest or weed control at 1000 g/ha (Lolium perenne (LOLPE)): 10% | pest or weed control at 1000 g/ha (Setaria faberi (SETFA)): 20%
